Tests used:
Type in all cases: in vivo
Matricaria chamomilla = assay: greenhouse post-emergence treatment, MATCH; conditions: Matricaria chamomilla, sc, 480 h, MATCH, 20 DAT
Summary of the method: (§1)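 Scale 0–100 damage rating (100 = complete destruction of above-ground parts, 0 = normal growth), read 2 to 4 weeks after post-emergence application of aqueous spray liquor to plants 3–15 cm tall.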

Papaver rhoeas = assay: greenhouse post-emergence treatment, PAPRH; conditions: Papaver rhoeas, 480 h, PAPRH, 20 DAT, solo flufenacet (SC 500 g/l) 250 gai/ha
Summary of the method: as §1

Echinocloa crus-galli = assay: greenhouse post-emergence treatment, ECHCG; conditions: Echinochloa crus-galli, 480 h, 20 DAT, flufenacet solo 31.25 gai/ha
Summary of the method: as §1

Polygonum convolvulus = assay: greenhouse post-emergence treatment, POLCO; conditions: Fallopia convolvulus, 480 h, 20 DAT; for inhibition at 500000 µg/mL (stock): sc, POLCO
Summary of the method: as §1

Lolium multiflorum = assay: greenhouse post-emergence treatment, LOLMU; conditions: Lolium multiflorum, 480 h, 20 DAT, read-out: % activity
Summary of the method: (§2)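 Visual damage score 0–100 (0 = normal growth; 100 = no emergence/above-ground parts destroyed), read 2–4 wk post-treatment. Loamy sand, ~3.0% humus; seedlings grown in place or transplanted days before spraying; water as solvent; 10-25° C. or 20-35° C. per species. Combination expectations by Colby: E=X+Y−(X·Y/100).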

Setaria viridis = assay: greenhouse post-emergence treatment, SETVI; conditions: Setaria viridis, 480 h, 20 DAT; for inhibition at 500000 µg/mL (stock): sc, SETVI
Summary of the method: as §2

Brachiaria decumbens = assay: greenhouse post-emergence treatment, BRADC; conditions: Urochloa decumbens, 480 h, 20 DAT; for inhibition at 500000 µg/mL (stock): sc, BRADC
Summary of the method: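 Loamy sand, ~3.0% humus; species sown separately; treated at 3–15 cm height; 10% w/w EC diluted in water; 10-25° C./20-35° C. per species; 2–4 wk; visual 0–100 rating.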

Avena fatua [1] = assay: greenhouse pre-emergence treatment, AVEFA; conditions: Avena fatua, 480 h, 20 DAT, AVEFA, flufenacet SC 500 g/l solo 62.5 gai/ha, read-out: % activity
Summary of the method: (§3)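 Damage rated on 0 to 100 scale (0 = normal growth, 100 = no emergence or total above-ground kill) after 2-4 weeks at species-dependent 10-25° C or 20-35° C. Seeds sown per species in loamy sand, ~3.0% humus, treated right after sowing with aqueous spray of single actives or 10% emulsion-concentrate mixtures, then hooded; additive expectation by Colby.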

Bromus sterilis = assay: greenhouse post-emergence treatment, BROST; conditions: Bromus sterilis, 480 h, 20 DAT; for inhibition at 500000 µg/mL (stock): sc, BROST
Summary of the method: as §2

Avena fatua [2] = assay: greenhouse post-emergence treatment, AVEFA; conditions: Avena fatua, 480 h, 20 DAT
Summary of the method: as §2

Ambrosia elatior = assay: greenhouse pre-emergence treatment, AMBEL; conditions: Ambrosia artemisiifolia, 480 h, 20 DAT, AMBEL
Summary of the method: as §3

[3] = solo flufenacet (SC 500 g/l) 31.25 gai/ha
[4] = solo flufenacet (SC 500 g/l) 62.5 gai/ha
[5] = solo flufenacet (SC 500 g/l) 125 gai/ha
[6] = solo flufenacet (SC 500 g/l) 250 gai/ha

In the case of `CC(C)N(C(=O)COc1nnc(C(F)(F)F)s1)c1ccc(F)cc1` [flufenacet], the inhibition at 500000 µg/mL (stock) (Matricaria chamomilla; [3]) is reported as 0%, the inhibition at 500000 µg/mL (stock) (Matricaria chamomilla; [4]) is reported as 0% and the inhibition at 500000 µg/mL (stock) (Matricaria chamomilla; [5]) is reported as 50%. The inhibition at 500000 µg/mL (stock) (Papaver rhoeas) was 0%, the inhibition at 31.25 g/ha (Echinocloa crus-galli) was 25% and the inhibition at 31.25 g/ha (Polygonum convolvulus; flufenacet solo 31.25 gai/ha) was 0%. The inhibition at 62.5 g/ha (Polygonum convolvulus; flufenacet solo 62.5 gai/ha) was 30%, the inhibition at 125 g/ha (Polygonum convolvulus; flufenacet solo 125 gai/ha) was 30% and the inhibition at 500000 µg/mL (stock) (Polygonum convolvulus; [3]) was 0%. For the same compound, the inhibition at 500000 µg/mL (stock) (Polygonum convolvulus; [4]) was 30%, the inhibition at 500000 µg/mL (stock) (Polygonum convolvulus; [5]) was 30% and the inhibition at 500000 µg/mL (stock) (Polygonum convolvulus; [6]) was 50%. The inhibition at 31.25 g/ha (Lolium multiflorum; flufenacet solo 31.25 gai/ha) was 20%, the inhibition at 62.5 g/ha (Lolium multiflorum; flufenacet solo 62.5 gai/ha) was 50% and the inhibition at 125 g/ha (Lolium multiflorum; flufenacet solo 125 gai/ha) was 85%. It also gave an inhibition at 250 g/ha (Lolium multiflorum; flufenacet solo 250 gai/ha) of 85%, an inhibition at 62.5 g/ha (Setaria viridis; flufenacet solo 62.5 gai/ha) of 35% and an inhibition at 125 g/ha (Setaria viridis; flufenacet solo 125 gai/ha) of 55%. For the same compound, the inhibition at 500000 µg/mL (stock) (Setaria viridis; [4]) was 35%, the inhibition at 500000 µg/mL (stock) (Setaria viridis; [5]) was 55% and the inhibition at 31.25 g/ha (Brachiaria decumbens; flufenacet solo 31.25 gai/ha) was 0%. It also gave an inhibition at 62.5 g/ha (Brachiaria decumbens; flufenacet solo 62.5 gai/ha) of 0%, an inhibition at 125 g/ha (Brachiaria decumbens; flufenacet solo 125 gai/ha) of 0% and an inhibition at 250 g/ha (Brachiaria decumbens; flufenacet solo 250 gai/ha) of 35%. It also gave an inhibition at 500000 µg/mL (stock) (Brachiaria decumbens; [3]) of 0%, an inhibition at 500000 µg/mL (stock) (Brachiaria decumbens; [4]) of 0% and an inhibition at 500000 µg/mL (stock) (Brachiaria decumbens; [5]) of 0%. For the same compound, the inhibition at 500000 µg/mL (stock) (Brachiaria decumbens; [6]) was 35%, the inhibition at 62.5 g/ha (Avena fatua [1]) was 60% and the inhibition at 125 g/ha (Bromus sterilis; flufenacet solo 125 gai/ha) was 65%. For the same compound, the inhibition at 250 g/ha (Bromus sterilis; flufenacet solo 250 gai/ha) was 80%, the inhibition at 500000 µg/mL (stock) (Bromus sterilis; [5]) was 65% and the inhibition at 500000 µg/mL (stock) (Bromus sterilis; [6]) was 80%. For the same compound, the inhibition at 31.25 g/ha (Avena fatua [2]; flufenacet solo 31.25 gai/ha, read-out: % activity) was 30%, the inhibition at 62.5 g/ha (Avena fatua [2]; flufenacet solo 62.5 gai/ha) was 65% and the inhibition at 125 g/ha (Avena fatua [2]; flufenacet solo 125 gai/ha, read-out: % activity) was 65%. The percent weed control (herbicidal activity, 0-100 scale) at 31.25 g/ha (Ambrosia elatior; flufenacet SC 500 g/l solo 31.25 gai/ha) was 0%, the percent weed control (herbicidal activity, 0-100 scale) at 62.5 g/ha (Ambrosia elatior; flufenacet SC 500 g/l solo 62.5 gai/ha, read-out: % activity) was 0% and the percent weed control (herbicidal activity, 0-100 scale) at 125 g/ha (Ambrosia elatior; flufenacet SC 500 g/l solo 125 gai/ha, read-out: % activity) was 0%.

From patent publication US10966426B2, “Herbicidal compositions comprising phenylpyrimidines” (BASF SE, priority 2016, dated 2021)
